According to PubChem BioAssay (NCI):
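Interpolation was linear, between the two tested concentrations surrounding the appropriate level; five concentrations were tested over 48 hours in 96-well plates. GI50 marks 50% less growth. TGI is the concentration that stops growth completely.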

Experiments:
Experiment in all cases: growth of human tumour cells (NCI), 48 h
NCI/ADR-RES ovarian = test system: NCI/ADR-RES ovarian
UO-31 renal = test system: UO-31 renal
MOLT-4 leukemia = test system: MOLT-4 leukemia
NCI-H226 lung = test system: NCI-H226 lung
SK-MEL-5 melanoma = test system: SK-MEL-5 melanoma
M14 melanoma = test system: M14 melanoma
TK-10 renal = test system: TK-10 renal
COLO 205 colon = test system: COLO 205 colon
K-562 leukemia = test system: K-562 leukemia
SK-OV-3 ovarian = test system: SK-OV-3 ovarian

| Compound | GI50 (NCI/ADR-RES ovarian) | TGI (NCI/ADR-RES ovarian) | GI50 (UO-31 renal) | TGI (UO-31 renal) | GI50 (MOLT-4 leukemia) | TGI (MOLT-4 leukemia) | GI50 (NCI-H226 lung) | TGI (NCI-H226 lung) | GI50 (SK-MEL-5 melanoma) | TGI (SK-MEL-5 melanoma) | GI50 (M14 melanoma) | TGI (M14 melanoma) | GI50 (TK-10 renal) | TGI (TK-10 renal) | GI50 (COLO 205 colon) | TGI (COLO 205 colon) | GI50 (K-562 leukemia) | TGI (K-562 leukemia) | GI50 (SK-OV-3 ovarian) | TGI (SK-OV-3 ovarian) |
| --- | --- | --- | --- | --- | --- | --- | --- | --- | --- | --- | --- | --- | --- | --- | --- | --- | --- | --- | --- | --- |
| CCc1oc2ccccc2c1C(=O)c1cc(I)c(O)c(I)c1 | 1.49 µM | 5.25 µM | 1.82 µM | 10.5 µM | 3.33 µM | 26.6 µM | 10.6 µM | 27 µM | 3.2 µM | 13.9 µM | 1.24 µM | 5.3 µM | 9.81 µM | 23.4 µM | 5.05 µM | 18.7 µM | 0.726 µM | 18.8 µM | 5.46 µM | 18.4 µM |
| Cc1ccc(C(=O)Nc2ccc(CN3CCN(C)CC3)c(C(F)(F)F)c2)cc1C#Cc1cnc(N)c2ccccc12 | 0.594 µM | 1.82 µM | 0.241 µM | 0.886 µM | 0.224 µM | 1.28 µM | 1.16 µM | 6.54 µM | 0.835 µM | 1.62 µM | 0.134 µM | 0.701 µM | 0.562 µM | 1.36 µM | 0.655 µM | 1.62 µM | 0.005 µM | 0.61 µM | 0.684 µM | 7.9 µM |
| O=C(/C(=C/c1cccc([N+](=O)[O-])c1)c1ccccc1)c1ccccc1 | 2.98 µM | > 100 µM | 2.21 µM | 5.85 µM | 3.13 µM | 11.6 µM | 3.08 µM | 11.5 µM | 2.39 µM | 6.73 µM | 3.45 µM | 18.9 µM | 4.19 µM | 21.4 µM | 3.82 µM | 13.3 µM | 3.27 µM | 15.7 µM | 3.69 µM | 10.2 µM |
| C=C1C(=O)O[C@H]2[C@H]1CC/C(COC(=O)c1cc3ccccc3s1)=C\CC[C@@]1(C)O[C@@H]21 | 2.14 µM | 6.63 µM | 1.4 µM | 2.79 µM | 1.88 µM | 7.69 µM | 2 µM | 4.63 µM | 1.75 µM | 3.21 µM | 1.75 µM | 4.24 µM | 1.55 µM | 2.93 µM | 1.71 µM | 3.48 µM | 0.813 µM | 30.5 µM | 13.9 µM | 26.8 µM |
| C/C=C(\C)CC/C=C/CO[Si](C)(C)C(C)(C)C | – | > 100 µM | – | > 100 µM | – | 81.3 µM | – | > 100 µM | – | > 100 µM | – | > 100 µM | – | > 100 µM | – | > 100 µM | – | > 100 µM | – | > 100 µM |
| O=C1/C(=C/c2ccc(O)cc2)CSc2ccc(Cl)cc21 | 18.7 µM | > 100 µM | 12.4 µM | 29.1 µM | 4.09 µM | > 100 µM | 22.1 µM | 51.2 µM | 12.3 µM | 24.7 µM | 10 µM | 62.2 µM | 15.6 µM | 34.2 µM | 15.6 µM | 29 µM | 2.36 µM | > 100 µM | 23 µM | 44.6 µM |
| Cc1nc(-c2ccccc2)c(-c2ccccc2)s1 | – | 65.4 µM | – | 54.1 µM | – | 38.8 µM | – | 42.7 µM | – | 27.5 µM | – | 41.1 µM | – | 52.8 µM | – | 38.8 µM | – | 57.2 µM | – | > 100 µM |
| C=C(C)C1CCC2(C(=O)O)CCC3(C)C(CCC4C5(C)CCC(OC(=O)NCc6ccccc6)C(C)(C)C5CCC43C)C12 (stereo not drawn) | 3.82 µM | > 100 µM | 1.86 µM | 34.5 µM | 2.79 µM | > 100 µM | 6.69 µM | > 100 µM | 4.82 µM | > 100 µM | 5.98 µM | > 100 µM | 3.76 µM | 58.4 µM | 1.82 µM | 5.44 µM | 1.67 µM | > 100 µM | 27.8 µM | > 100 µM |
| CC[C@H](C)[C@H]1O[C@]2(C=C[C@@H]1C)C[C@@H]1C[C@@H](C/C=C(\C)[C@@H](O[C@H]3C[C@H](OC)[C@@H](O[C@H]4C[C@H](OC)[C@@H](NC)[C@H](C)O4)[C@H](C)O3)[C@@H](C)/C=C/C=C3\CO[C@@H]4[C@H](O)C(C)=C[C@@H](C(=O)O1)[C@]34O)O2 | 3.05 µM | 11.3 µM | 1.69 µM | 4.13 µM | 1.81 µM | 4.48 µM | 4.26 µM | 16 µM | 1.8 µM | 3.2 µM | 1.93 µM | 3.98 µM | 1.96 µM | 4.99 µM | 1.77 µM | 3.39 µM | 1.97 µM | 4.22 µM | 3.63 µM | 13.9 µM |
| COc1ccc(-c2nnc(COc3ccc(NC(=O)Nc4ccc(Cl)c(C(F)(F)F)c4)cc3F)o2)cc1 | 3.28 µM | > 100 µM | 2.88 µM | 16.6 µM | 2.39 µM | 11.6 µM | 4.93 µM | 37.3 µM | 2.1 µM | 5.36 µM | 3.13 µM | 16.5 µM | 9.09 µM | 41.4 µM | 2.02 µM | 5.06 µM | 3.31 µM | 53.9 µM | 5.86 µM | 31.5 µM |
| CSc1nc2cc(S(=O)(=O)N3CCCCC3)ccc2s1 | – | > 100 µM | – | > 100 µM | – | > 100 µM | – | > 100 µM | – | > 100 µM | – | > 100 µM | – | > 100 µM | – | > 100 µM | – | > 100 µM | – | > 100 µM |
| Cn1cnc([N+](=O)[O-])c1[Se]c1nc(N)nc2c1ncn2C1OC(CO)C(O)C1O (stereo not drawn) | – | > 100 µM | – | > 100 µM | – | > 100 µM | – | > 100 µM | – | > 100 µM | – | > 100 µM | – | > 100 µM | – | > 100 µM | – | > 100 µM | – | > 100 µM |
| CCN(CC)CCCC(C)Nc1cnc(C(=O)Nc2cccc3ccc(OC)nc23)cn1 (stereo not drawn) | 2.62 µM | 7.95 µM | 1.46 µM | 2.82 µM | 2.04 µM | 4.67 µM | 7.52 µM | 21.7 µM | 1.77 µM | 3.21 µM | 1.93 µM | 3.71 µM | 15.4 µM | 29.7 µM | 1.77 µM | 3.46 µM | 1.8 µM | 6.2 µM | 15 µM | 28.4 µM |
| COc1ccc(-n2cc(-c3cc(OC)c(OC)c(OC)c3)[nH]c2=O)cc1Cl | > 100 µM | > 100 µM | > 100 µM | > 100 µM | > 100 µM | > 100 µM | > 100 µM | > 100 µM | > 100 µM | > 100 µM | > 100 µM | > 100 µM | 55.2 µM | > 100 µM | > 100 µM | > 100 µM | > 100 µM | > 100 µM | 31.8 µM | > 100 µM |
| CC(C)CCCC(=O)CCCCCCC(=O)CCN(O)C(=O)C(N)CO (stereo not drawn) | – | 38.4 µM | – | 26.7 µM | – | > 100 µM | – | 35.6 µM | – | 43.7 µM | – | 61.5 µM | – | 32.2 µM | – | 53.5 µM | – | > 100 µM | – | 35.6 µM |
| CCCCN1CSC(=S)N(Cc2ccccc2)C1 | – | > 100 µM | – | > 100 µM | – | 78.2 µM | – | > 100 µM | – | 67.5 µM | – | > 100 µM | – | > 100 µM | – | 50.6 µM | – | > 100 µM | – | > 100 µM |
| COc1ccc(C2SCC(=O)N2NC(=O)Nc2c(C)nc3ccccn23)cc1 (stereo not drawn) | 40.2 µM | > 100 µM | 32.7 µM | > 100 µM | > 100 µM | > 100 µM | 42.8 µM | > 100 µM | > 100 µM | > 100 µM | > 100 µM | > 100 µM | 22.6 µM | 49 µM | > 100 µM | > 100 µM | > 100 µM | > 100 µM | 24.5 µM | 47.6 µM |
| O=c1[nH]c(=O)n(C2OC(CO)C(O)C(O)C2O)cc1F (stereo not drawn) | – | > 100 µM | – | > 100 µM | – | > 100 µM | – | > 100 µM | – | > 100 µM | – | > 100 µM | – | > 100 µM | – | > 100 µM | – | > 100 µM | – | > 100 µM |
| COc1cc2c3c(n(C)c(=O)c2cc1OC)-c1cc2c(cc1/C3=C\CNCCCN)OCO2 | 5.26 µM | > 88.5 µM | 6.96 µM | > 100 µM | 0.0118 µM | 0.0502 µM | 0.0753 µM | 0.797 µM | 1.03 µM | 2.71 µM | 0.585 µM | 5.31 µM | 0.981 µM | 7.47 µM | 0.232 µM | 8.71 µM | 0.168 µM | – | 1.26 µM | > 88.2 µM |
| COc1cc2c3c(n(CCNCCCNCCn4c5c(c6cc(OC)c(OC)cc6c4=O)C(=O)c4ccccc4-5)c(=O)c2cc1OC)-c1ccccc1C3=O | > 100 µM | > 100 µM | > 65.1 µM | > 100 µM | – | 0.0432 µM | 0.3 µM | 3.04 µM | 4.93 µM | 22.5 µM | 1.38 µM | 6.52 µM | 2.9 µM | 21.7 µM | 0.121 µM | 1.01 µM | 0.103 µM | 1.48 µM | 7.02 µM | 32.2 µM |
